Reference: paper PMC7824033, “Flavones, Flavonols, and Glycosylated Derivatives—Impact on Candida albicans Growth and Virulence, Expression of CDR1 and ERG11, Cytotoxicity” (Pharmaceuticals, 2020)
In brackets after ≈: the same amount, converted by molar mass. Entries after “also recorded” stand apart in the source; their conditions may differ. Where two headings read alike, the source gives them in different places.

Experiments:
[1] = tested on: Candida albicans; experiment: Microdilution assay, MIC (strain not named); format: cell-based; details: read-out: minimum inhibitory concentration (MIC)
Description: (§1) C. albicans was isolated from oral cavities of patients at ENT Clinic, Clinical Hospital Centre Zvezdara, Belgrade, Serbia after obtaining informed written consent and identified by using CHROMagar plates (Biomerieux, Craponne, France). Strains were maintained on Sabouraud Dextrose Agar (Merck, Darmstadt, Germany) and are deposited at the Mycological Laboratory, Department of Plant Physiology, Institute for Biological Research “Siniša Stanković”, National Institute of Republic of Serbia, University of Belgrade. The collection of samples was approved by the Ethical Committee (Office for Human Research Protection, Zvezdara University Medical Center, Belgrade, Serbia, document issued 26 October 2016).
(§2) Microdilution assay with some modification was used for determination of minimum inhibitory (MIC) and minimum fungicidal concentrations (MFC). Yeast cultures were adjusted to 1.0 × 10^5 CFU/per well with sterile PBS (Phosphate buffered saline, pH 7.4). The 96-well microtiter plates with serially diluted flavonoids (concentration range 0.3–75 µg/mL) in liquid broth were incubated at 37 °C for 24 h. After incubation, MIC and MFC were determined. The lowest concentrations that were not inducing microscopically observed growth were considered as MIC. For microscopic determination of growth, we used inverted microscope Nikon Eclipse TS2 (Amsterdam, Netherland) and examined the fungal growth in the wells of 96-well microtiter plates compared to the control (untreated yeast cells). MFC values were determined as concentrations without visible growth after serial sub-cultivation of 10 µL of samples at 37 °C for 24 h. Ketoconazole and amphotericin B (SigmaAldrich, Darmstadt, Germany) were used as an antifungal control. The tested flavonoids were obtained from Extrasynthese, Rhone, France.

[2] = tested on: C. albicans biofilm; details: C. albicans CAD1 biofilm; cited from earlier work
[3] = Cytotoxicity, Sulforhodamine B assay; details: pig
Procedure: Preparation of PLP2 cell line was performed with freshly harvested porcine liver supplied from a local slaughter house. Tissues from the liver were washed in Hank’s balanced salt solution comprising 100 U/mL penicillin and 100 μg/mL streptomycin and split into 1 × 1 mm^3 explants. Some of the prepared explants were set in 25 cm^2 tissue flasks in Dulbecco’s modified Eagle’s medium (DMEM) with 10% fetal bovine serum (FBS), 2 mM nonessential amino acids, 100 U/mL penicillin, and […] streptomycin, and incubation was conducted at 37 °C with 5% CO2 in a humidified atmosphere. The fresh medium was added every 2 days. Cultivation of the cells was further conducted with direct observation by the phase contrast microscope every 2–3 days. Before confluence was achieved, cells were subcultured and seeded in 96-well plates at a density of 1.0 × 10^4 cells per well and cultivated in DMEM supplemented with 10% FBS, 100 U/mL penicillin, and 100 μg/mL streptomycin. Previously described Sulforhodamine B assay was used for the determination of cytotoxicity. The obtained results were defined as GI50 values corresponding to the compound concentration that inhibits 50% of the net cell growth. Ellipticine was used as a positive control.

[4] = tested on: CDR1; experiment: Expression of CDR1 (qPCR); format: cell-based, Candida albicans; details: treatment with MIC
Procedure: (§3) Total RNA was isolated as described by Sanglard et al. with some modifications. C. albicans 475/15 was grown with agitation at 30 °C in YEPD until OD540 = 0.4. C. albicans cells were incubated with MIC of compounds in YEPD at 30 °C with agitation for 30 min. Cells were centrifuged (4600 rpm, 4 °C for 5 min (Rotanata 460 R, Hettich, Tuttlingen, Germany)) and the pellet was resuspended in 300 µL of RNA buffer (0.1 M Tris-HCl pH 7.5, 0.1M LiCl, 10mM EDTA, 0.5% SDS). The pellet was homogenized with 200 µL of DEPC treated glass beads and 300 µL of Phenol:Chloroform:Isoamyl Alcohol (Sigma-Aldrich, Darmstadt, Germany) in Precellys Evolution tissue homogenizer (Bertion instruments, Montigny-le-Bretonneux, France) at 4500 rpm for 5 s. After centrifugation (14,000 rpm, 4 °C, 1 min (Universal 32 R, Hettich, Tuttlingen, Germany)) 200 µL of supernatant was vortexed with 250 µL of Phenol:Chloroform:Isoamyl Alcohol for 10 s. Samples were centrifuged (14,000 rpm, 4 °C, 1 min) and 200 µL of supernatant was transferred to new tubes, 400 µL of ice-cold 99% ethanol was added to each tube, and they were kept on dry ice for 10 min. Samples were centrifuged (14,000 rpm, 4 °C, 2 min), pellet was washed with ethanol (70%), left to dry at room temperature, after which it was dissolved in 50 µL of DEPC treated water. Nanodrop (ND-1000, Witec AG, Sursee, Switzerland) was used for determination of concentration and purity of samples. RNA was stored at −80°C.
(§4) Amount of 10 µg RNA was incubated with 5 µL of DNAse buffer and 1 µL of DNAse at 37 °C for 30 min (DNA-free™ DNA Removal Kit, Ambion, Bleiswijk, Netherlands). After addition of DNAse inactivation reagent tubes were kept at room temperature with occasional vortexing for 5 min. Samples were centrifuged (14,000 rpm, 4°C, 2 min) and the concentration and quality of supernatant were analyzed on Nanodrop (ND-1000, Witec AG, Sursee, Switzerland).
(§5) Synthesis of cDNA was done with a Transcriptor High Fidelity cDNA synthesis kit (Roche). RNA (1 µg) was incubated with 60 µM random hexamer primers, in 11.4 µL of total sample volume, at 65 °C for 10 min. The mixture of Transcriptase reaction buffer 5×, Deoxynucleotide mix, DTT, Protector RNAse inhibitor, and Transcriptor High Fidelity Reverse Transcriptase was added to each tube according to manufacturer instructions. Synthesis of cDNA was completed by incubating the mixture at 50 °C for 30 min and 85 °C for 5 min (Peqstar thermocycler, Peqlab, Erlangen, Germany).
(§6) Wells of MicroAmp Fast 96-Well Reaction plate ((0.1 mL), Applied biosystems, Waltham, MA, USA) were incubated with 10 µL of mixture (cDNA, 2× MasterMix, primers, probe (Table 3), and water). Analysis was performed in StepOnePlus Real Time PCR system with relative standard curve method. Expression levels of CDR1 and ERG11 were normalized to expression of ACT1.

[5] = tested on: C. albicans; details: cited from earlier work
[6] = tested on: C. albicans 475/15 biofilm formation; experiment: Inhibition of biofilm formation (crystal violet); format: cell-based, Candida albicans; details: for antibiofilm activity: MIC and subMICs; for inhibition of biofilm formation: compound applied at MIC
Procedure: Potential of selected compounds to interfere with C. albicans 475/15 biofilm formation was investigated as previously described. Briefly, C. albicans 475/15 was incubated with serial dilution of the compounds (MIC and subMICs) in YPD medium, in 96-well microtiter plates with adhesive bottom (Sarstedt, Nümbrecht, Germany), at 37 °C for 24 h. After incubation, wells were washed twice with sterile PBS and methanol was added into each well. After fixation, methanol was discarded, and the plate was air dried. Formed biofilms were stained with 0.1% crystal violet (Bio-Merieux, Craponne, France) for 30 min. The plate was gently washed under the tap of water and air dried. The stain bound to the remaining biofilms was dissolved with ethanol (96%, Zorka, Šabac, Serbia). Absorbance was read on a Multiskan™ FC Microplate Photometer, Thermo Scientific™. The percentage of inhibition of biofilm formation was calculated by the formula:[(A620control − A620sample)/A620control] × 100

[7] = tested on: C. albicans 475/15; experiment: Microdilution assay, MIC and MFC; format: cell-based; details: Candida albicans
Description: as §1, §2

[8] = tested on: C. albicans 13/15; experiment: Microdilution assay, MIC and MFC; format: cell-based; details: Candida albicans
Description: as §1, §2

[9] = tested on: C. albicans 527/14; experiment: Microdilution assay, MIC and MFC; format: cell-based; details: Candida albicans
Description: as §1, §2

[10] = tested on: C. albicans 10/15; experiment: Microdilution assay, MIC and MFC; format: cell-based; details: Candida albicans
Description: as §1, §2

[11] = tested on: ERG11; experiment: Expression of ERG11 (qPCR); format: cell-based, Candida albicans; details: treatment with MIC
Procedure: as §3, §4, §5, §6

[12] = tested on: CDR1; details: identical assay, previously published; cited from earlier work

C[C@@H]1O[C@@H](Oc2c(-c3ccc(O)c(O)c3)oc3cc(O)cc(O)c3c2=O)[C@H](O)[C@H](O)[C@H]1O [Quercitrin, quercitrin]
MIC [1]: 37.5 µg/mL (≈ 83.6 µM)
antibiofilm activity [2]: complete lack of activity
GI50 [3]: 73 ± 3 µg/mL (≈ 163 µM)
impact on CDR1 expression [4]: downregulated
MIC ([5]; C. albicans ATCC 10231, ref 17): 100 µg/mL (≈ 223 µM)
MIC ([5]; C. albicans CAD1, clinical isolate): > 512 µg/mL
antibiofilm activity [6]: lowest potential to reduce biofilm formation
inhibition of biofilm formation [6]: less than 50%
MFC ([7]; 475/15): 75 ± 3 µg/mL (≈ 167 µM)
MIC ([7]; 475/15): 37.5 ± 2 µg/mL (≈ 83.6 µM)
MFC ([8]; 13/15): 75 ± 3 µg/mL (≈ 167 µM)
MIC ([8]; 13/15): 37.5 ± 1 µg/mL (≈ 83.6 µM)
MFC ([9]; 527/14): 75 ± 3 µg/mL (≈ 167 µM)
MIC ([9]; 527/14): 37.5 ± 2 µg/mL (≈ 83.6 µM)
MFC ([10]; 10/15): 75 ± 3 µg/mL (≈ 167 µM)
MIC ([10]; 10/15): 37.5 ± 2 µg/mL (≈ 83.6 µM)

C[C@@H]1O[C@@H](OC[C@H]2O[C@@H](Oc3c(-c4ccc(O)c(O)c4)oc4cc(O)cc(O)c4c3=O)[C@H](O)[C@@H](O)[C@@H]2O)[C@H](O)[C@H](O)[C@H]1O [Rutin, rutin]
MIC ([1]; C. albicans, this study, strain not given): 37.5 µg/mL (≈ 61.4 µM)
antibiofilm activity [2]: lack of C. albicans CAD1 antibiofilm activity
GI50 [3]: > 400 µg/mL
MIC ([5]; C. albicans ATCC 10231, ref 21): 40 µg/mL (≈ 65.5 µM)
MIC ([5]; C. albicans ATCC 18804): > 1000 µg/mL
concentration necessary for growth inhibition ([5]; C. albicans CA-1): 1000 µg/mL
antibiofilm activity [6]: lowest activity against biofilm formation
inhibition of biofilm formation [6]: less than 50%
impact on ERG11 expression (words) [11]: lower expression levels; also recorded: negative impact; also recorded: lowering ERG11 expression
MFC ([7]; C. albicans 475/15, mean ± SD of three replicates, read-out: MFC): 75 ± 1 µg/mL (≈ 123 µM)
MIC ([7]; C. albicans 475/15, mean ± SD of three replicates, read-out: MIC): 37.5 ± 1 µg/mL (≈ 61.4 µM)
MFC ([8]; C. albicans 13/15, mean ± SD of three replicates, read-out: MFC): 75 ± 2 µg/mL (≈ 123 µM)
MIC ([8]; C. albicans 13/15, mean ± SD of three replicates, read-out: MIC): 37.5 ± 1 µg/mL (≈ 61.4 µM)
MFC ([9]; C. albicans 527/14, mean ± SD of three replicates, read-out: MFC): 75 ± 1 µg/mL (≈ 123 µM)
MIC ([9]; C. albicans 527/14, mean ± SD of three replicates, read-out: MIC): 37.5 ± 1 µg/mL (≈ 61.4 µM)
MFC ([10]; C. albicans 10/15, mean ± SD of three replicates, read-out: MFC): 75 ± 2 µg/mL (≈ 123 µM)
MIC ([10]; C. albicans 10/15, mean ± SD of three replicates, read-out: MIC): 37.5 ± 1 µg/mL (≈ 61.4 µM)

O=c1c(O[C@@H]2O[C@H](CO)[C@@H](O)[C@H](O)[C@H]2O)c(-c2ccc(O)cc2)oc2cc(O)cc(O)c12 [astragalin]
impact on CDR1 expression [12]: inhibitory impact
